Data as given in US20090142363A1, “CYTOTOXIC T-CELL EPITOPE PEPTIDE AND USE THEREOF” (priority 2005, published 2009).
No end group written: not given here.

Experiments:
Type in all cases: cell-based, human
[1] = test system: peripheral blood / PBMCs / peptide-induced CTL lines of HLA-A*24 donors; assay: Staining of peripheral blood, PBMCs or peptide-induced CTL lines with MHC-tetramer reagents; design: positive rate: CD8-positive, MHC-tetramer reagent-positive cells to viable cells: concentration or dose not given beside the values; conditions: for MHC-tetramer reagent-positive cells (UL and UR) in IFNγ / tetramer plot, almost none producing IFNγ: HIV peptide added, TYF: donor ID*24-8, VYS: donor ID*24-2; for increase of the positive rate from day 0 to day 10: donor ID*24-8, ten days of culture with the peptide; for amount of specific CTLs (CD8 / MHC-tetramer reagent-positive): TYF: donor ID*24-8, 10 days stimulation, VYS: donor ID*24-2, 27 days
Experimental: MBL Co. where the present inventors are affiliated with has acquired exclusive patent licensing rights in Japan for MHC-tetramer reagents (U.S. Pat. No. 5,635,363; French Application No. FR9911133; and U.S. Pat. Nos. 5,723,584, 5,874,239, 5,932,433, and 6,265,552) from Beckman Coulter Co. Based on the patents, PE-labeled MHC-tetramer reagents were prepared using adenovirus-specific CTL epitope peptides and HLA-A*2402 molecules.
Adenovirus-specific CTLs quantification was carried out using MHC-tetramer reagents that was prepared using CTL epitope peptides of the present invention, with peripheral blood, PBMCs isolated from peripheral blood, CTL lines induced using CTL epitope peptides as samples. Examples of quantification using PE-labeled MHC-tetramer reagents are described below. Labelling dyes may be used in an appropriate combination depending on the type of flow cytometer to be used, and is not limited to the examples described below.
Ten μl of a PE-labeled MHC-tetramer reagent, 20 μl of an FITC-labeled antibody for T cell (for example, CD8, CD4, or CD3), and such were added to 200 μl of collected peripheral blood. A CD45 antibody labeled with PC5 or such may also be added to eliminate nonspecific fluorescence due to contaminated erythrocytes. After gentle mixing, the mixture was allowed to stand at room temperature for 30 minutes. OptiLyse B was added, and erythrolysis and fixation was carried out according to the manufacturer's protocol. Two ml of PBS was added, stirred, and the cells were centrifuged at 400×g for 5 minutes. After the supernatant was removed by aspiration, the cells were resuspended in 500 μl of PBS and analyzed using a flow cytometer within 24 hours.
Ten μl of a PE-labeled MHC-tetramer reagent, 20 μl of an FITC-labeled T cell surface antibody (for example, CD8, CD4, or CD3), and such were added to an appropriate amount of PBMCs (10^5 to 10^6 cells) or a CTL line induced by use of CTL epitope peptides. A CD45 antibody labeled with PC5 or such may also be added to eliminate nonspecific fluorescence due to contaminated erythrocytes. After gentle mixing, the cells were allowed to stand at room temperature for 30 minutes. Three ml of PBS was added, stirred, and the cells were centrifuged at 400×g for 5 minutes. After the supernatant was removed by aspiration, the cells were resuspended in 500 μl of PBS. When a CTL line is used, 7-AAD Viability Dye (Non-viable cell detection reagent; MBL Co.) may be added to eliminate nonspecific fluorescence caused by non-viable cells. The cells were analyzed using a flow cytometer within 24 hours.
The results of staining obtained using the five types of MHC-tetramer reagents used to prepare the peptide-induced CTL lines are shown in FIG. 5.

[2] = test system: CTL line induced by TYF (PBMCs from ID*24-8); assay: Cross-reactivity of the TYF-induced CTL line to the subgroup C-specific CTL epitope
From the text: As shown in FIG. 11-4, there are amino acid mutations at the fourth and sixth positions in TYF identified in the present invention as compared to the subgroup C-specific CTL epitopes. Thus, the cross-reactivity to subgroup C-specific CTL epitope ([…] (SEQ ID NO: 14); mutated amino acids are underlined) (Leen A M, Sili U, Vanin E F, Jewell A M, Xie W, Vignali D, Piedra P A, Brenner M K, Rooney C M. Conserved CTL epitopes on the adenovirus hexon protein expand subgroup cross-reactive and subgroup-specific CD8+ T cells. Blood. 104:2432-2440 (2004)) was examined using a CTL line induced by TYF.
PBMCs prepared from ID*24-8 were stimulated with TYF for 13 days, and then restimulated with TYF or […] (SEQ ID NO: 14) to examine whether the CTL line produces IFNγ.

[3] = test system: CTLs with target cells expressing HLA-A*24 molecules; assay: Confirmation of CTLs by ELISPOT assay (IFNγ spots); conditions: FIG. 4
Experimental: A commercially available ELISPOT assay kit (for example, MABTECH Co.) may be purchased, and the assay can be performed according to the manufacturer's protocol. Alternatively, the assay may also be carried out by the following procedure. 96-well MultiScreen-HA plates (Millipore Co.) were coated with an anti-IFNγ monoclonal antibody (R&D Systems Co.) at 4° C. for overnight. Each well was washed with PBS. Target cells were plated into each well. Any cells expressing HLA-A*24 molecules on their surface can be used as the target cells. For example, T2-A24, a cultured cell which a gene of HLA-A*24 molecule is introduced into a 174CEM.T2 cell, can be used. Alternatively, EBV-infected LCLs expressing HLA-A*24 molecules on their surface can be used as the target cells. These target cells were added into each well with a candidate peptide for adenovirus-specific CTL epitopes or a negative control (HIV) peptide. The mixtures were allowed to stand at room temperature for 30 minutes. Then, an adequate number of CTLs were added, and the mixtures were cultured in a 5% CO2 incubator at 37° C. for 20 hours. CTLs that responded to the candidate epitope peptide secreted IFNγ during this culture period, and the IFNγ bound to the anti-IFNγ monoclonal antibody that was coated on the plates. After culturing was completed, the plates were washed with PBS containing 0.05% Tween-20. Then, an anti-IFNγ polyclonal antibody (Genzyme Co.) and peroxidase-labeled goat anti-rabbit IgG serum were allowed to react in this order at room temperature for 90 minutes each. Furthermore, 3-amino-9-ethylcarbasole (Sigma), a peroxidase substrate, and 0.1M sodium acetate buffer (pH 5.0) containing 0.015% H2O2 was added to each well, and the plates were incubated at room temperature for 40 minutes to visualize the IFNγ spots. The spots were counted under a stereomicroscope.
The spots were counted under a stereomicroscope, and were plotted on a graph.

[4] = donor ID*24-8, PBMCs cultured with the epitope peptide for 10 days (day 10)
[5] = donor ID*24-8, immediately after blood collection (day 0)
[6] = restimulation with the specific peptide

Sequence	MHC-tetramer reagent-positive cells (UL and UR) in IFNγ / tetramer plot, almost none producing IFNγ [1] [%]	positive rate: CD8-positive, MHC-tetramer reagent-positive cells to viable cells [1, 4] [%]	positive rate: CD8-positive, MHC-tetramer reagent-positive cells to viable cells [1, 5] [%]	increase of the positive rate from day 0 to day 10 [1] [times]	amount of specific CTLs (CD8 / MHC-tetramer reagent-positive) ([1]; restimulation with HIV peptide) [%]	amount of specific CTLs (CD8 / MHC-tetramer reagent-positive) [1, 6] [%]	cross-reactivity to subgroup C [2]	IFNγ production of the CTL line induced by TYF on restimulation with the named peptide ([2]; PBMCs from ID*24-8 stimulated with TYF for 13 days)	CD8-positive and TYF-Tet-positive cells ([2]; PBMCs from ID*24-8 stimulated with TYF for 13 days, restimulated with the named peptide) [%]	IFNγ spots in ELISPOT assay compared with the negative control (HIV) peptide [3]
TYFNLGNKF [TYF]	1.76	1.53	0.01	153	1.67	0.80	no cross-reactivity	produced IFNγ in a TYF-specific manner	1.22	IFNγ spots were observed
VYSGSIPYL	8.24	0.15	0.01	15	8.33	5.07	–	–	–	IFNγ spots were observed
